Laboratory results published in ChEMBL document CHEMBL5252573, “2,3-Dihydrosorbicillin and chrysopanol stimulate insulin secretion in INS-1 cells” (Bioorg Med Chem Lett, 2023).
Activity calls are given as the source filed them. No cut-off for these calls is given here.

Assays:
INS1 [1] = assay: Upregulation of PI3K protein expression in rat INS1 cells at 10 uM incubated for 24 hrs by Western blot analysis; type: functional, cell-based
INS1 [2] = assay: Upregulation of PPARgamma protein expression in rat INS1 cells at 10 uM incubated for 24 hrs by Western blot analysis; type: functional, cell-based
[3] = Induction of glucose stimulated insulin secretion in rat INS1 cells assessed as increase in insulin level at 10 uM incubated for 1 hr; type: functional
INS1 [4] = assay: Upregulation of IRS-2 protein expression in rat INS1 cells at 10 uM incubated for 24 hrs by Western blot analysis; type: functional, cell-based
[5] = Induction of glucose stimulated insulin secretion in rat INS1 cells assessed as increase in insulin level at 5 uM incubated for 1 hr; type: functional
INS1 [6] = assay: Upregulation of AKT protein expression in rat INS1 cells at 10 uM incubated for 24 hrs by Western blot analysis; type: functional, cell-based
INS1 [7] = assay: Upregulation of PDX-1 protein expression in rat INS1 cells at 10 uM incubated for 24 hrs by Western blot analysis; type: functional, cell-based
INS1 [8] = assay: Cytotoxicity against rat INS1 cells assessed as reduction in cell viability at 2.5 to 10 uM incubated for 24 hrs by MTT assay; type: toxicity, cell-based; settings: ins1, 24 h, dose 2.5-10 µM
INS1 [9] = assay: Upregulation of PPARgamma protein expression in rat INS1 cells at 5 uM incubated for 24 hrs by Western blot analysis; type: functional, cell-based
INS1 [10] = assay: Upregulation of IRS-2 protein expression in rat INS1 cells at 5 uM incubated for 24 hrs by Western blot analysis; type: functional, cell-based
[11] = Induction of glucose stimulated insulin secretion in rat INS1 cells assessed as increase in insulin level at 2.5 uM incubated for 1 hr; type: functional
INS1 [12] = assay: Upregulation of PI3K protein expression in rat INS1 cells at 5 uM incubated for 24 hrs by Western blot analysis; type: functional, cell-based
INS1 [13] = assay: Upregulation of AKT protein expression in rat INS1 cells at 5 uM incubated for 24 hrs by Western blot analysis; type: functional, cell-based
INS1 [14] = assay: Upregulation of PDX-1 protein expression in rat INS1 cells at 5 uM incubated for 24 hrs by Western blot analysis; type: functional, cell-based

Structure (SMILES) | Activity [3] | Activity [5] | Activity (INS1 [8]) | other results
C/C=C/CCC(=O)c1cc(C)c(O)c(C)c1O | 15.57 ng/mL | 8.92 ng/mL | Non-Toxic | Activity (INS1 [1]): Active; Activity (INS1 [2]): Active; Activity (INS1 [4]): Active; Activity (INS1 [6]): Active; Activity (INS1 [7]): Active
CC(O)c1nc2ccccc2c(=O)[nH]1 (stereo unspecified) |  |  | Non-Toxic | 
Cc1ccc(S(=O)(=O)NC(=O)NN2CC3CCCC3C2)cc1 (stereo unspecified) [GLICLAZIDE] | 20.85 ng/mL | 9.69 ng/mL |  | 
C=CC(C)(C)[C@@]12C=C(O)C(=O)N3/C(=C/c4c[nH]cn4)C(=O)N[C@]31N(O)c1ccccc12 | 12.86 ng/mL | 12.05 ng/mL | Non-Toxic | 
Cc1cc(O)c2c(c1)C(=O)c1cc(O)cc(O)c1C2=O [EMODIN] |  |  | Non-Toxic | 
COC(=O)[C@@]12Oc3ccc(-c4ccc5c(c4O)C(=O)C4=C(O)C[C@H](C)[C@@H](O)[C@]4(C(=O)OC)O5)c(O)c3C(=O)C1=C(O)C[C@H](C)[C@H]2O |  |  | Non-Toxic | 
C=CC(C)(C)[C@@]12C=C(O)C(=O)N3/C(=C/c4cnc[nH]4)C(=O)N[C@]31N(OC)c1ccccc12 |  |  | Non-Toxic | 
Cc1cc(O)c2c(c1)C(=O)c1cccc(O)c1C2=O [CHRYSOPHANOL] | 24.23 ng/mL | 20.01 ng/mL | Non-Toxic | Activity (INS1 [9]): Active; Activity (INS1 [10]): Active; Activity [11]: 8.81 ng/mL; Activity (INS1 [12]): Active; Activity (INS1 [13]): Active; Activity (INS1 [14]): Active
